Here are results for one compound from US20250000881A1, “TREATMENT OF TREATMENT RESISTANT […] PSILOCYBIN” (COMPASS […], priority 2021, published 2025).

This assay deals with adult subjects with TRD. The assay is described as follows: Phase 2b trial in TRD: Digit Symbol Substitution Test (DSST). Format: in vivo, human. To be noted: 25 mg vs 1 mg groups, week 3. The method, then: Other objectives were to evaluate the effects of psilocybin on quality of life and wellbeing, functioning and associated disability, cognitive function, and anxiety compared to 1 mg psilocybin on: • (a) Quality of life in subject EuroQoL (EQ)-5 dimension-3 level scale (EQ-5D-3L) score change from Baseline to week 3. This will also be assessed at week 12. This assessment was not mandatory. • (b) Quality of life in caregiver EQ-5D-3L score change from Baseline to week 3. This was assessed at week 12. • (c) Functioning and associated disability in the Sheehan Disability Scale (SDS) score change from Baseline to week 3. This was also assessed at week 12. • (d) Cognitive function as measured by the Digit Symbol Substitution Test (DSST) score change from baseline to week 3. This was assessed at day 1 and week 12. • (e) Level of anxiety as measured using the change in Generalised Anxiety Disorder 7 item Scale (GAD-7) total score change from baseline to week 3. This was assessed at week 12. • (f) Subject determined level of depression as measured using the change in Quick Inventory of Depressive Symptomatology Self-Rated (QIDS-SR-16) total score from Baseline to week 3. […] This was assessed at week 12. • (h) To evaluate the impact of different psilocybin doses on real life functional activity estimated from passive data streams collected on a mobile app on subjects' mobile phones. […]

On to `CN(C)CCc1c[nH]c2cccc(OP(=O)(O)O)c12` [COMP360, psilocybin], for which the “DSST least squares mean treatment difference” value is given as 1.32.
